# Data as given in patent US8399518B2, “Administration of 3,5-diiodothyropropionic acid for stimulating weight loss, and/or lowering triglyceride levels, and/or treatment of metabolic syndrome” (University of Arizona Office of Technology Transfer, priority 2007, dated 2013).
# Test: Human clinical study with DITPA: weight loss in patients with a history of congestive heart failure
# Format: in vivo
# Conditions: maximum 26 weeks; for patients who experienced a weight loss of 2% or more: DITPA or placebo (2:1) orally, 90 mg/day increased to 180 or 360 mg/day
# Protocol: Fifty-four patients with a history of congestive heart failure were administered DITPA or placebo in a 2:1 randomized and double-blinded manner for a maximum of 26 weeks. […] The patients in the study were administered DITPA orally twice per and the dose began at 90 mg/day and increased to 180 mg/day after two weeks. In half of the DITPA patients, the dose was increased further to 270 mg/day after two weeks, and then to 360 mg/day. Patients were randomized 1:1:1 to DITPA 180 mg/day, DITPA 360 mg/day, or placebo.
structure (smiles),measurement,setting,value
"O=C(O)CCc1cc(I)c(Oc2ccc(O)cc2)c(I)c1 [DITPA, 3,5-diiodothyropropionic acid]","decrease in weight, overweight patients versus patients of normal body weight",oral DITPA 180 or 360 mg/day,greater decrease in weight in overweight patients than those of normal body weight
same,patients who experienced a weight loss of 2% or more,patients with body mass index greater than 25,71.05%
same,patients who experienced a weight loss of 2% or more,patients with body mass index less than or equal to 25,37.5%
